Measurements from the NIST ThermoML archive (doi:10.1021/je400835u).
Numbers after ± are expanded uncertainties.

Legend:
[1] = 100 kPa, Liquid; for viscosity: Falling or rolling sphere viscometry; for mass density: Vibrating tube method
[2] = xn = mol fraction of the nth substance listed; settings: 100 kPa, Liquid, x2 = 0; for viscosity: Falling or rolling sphere viscometry; for mass density: Vibrating tube method

| viscosity ([1]; 293.15 K) [mPa·s] | mass density ([1]; 293.15 K) [kg/m3] | viscosity ([1]; 298.15 K) [mPa·s] | mass density ([1]; 298.15 K) [kg/m3] | viscosity ([1]; 303.15 K) [mPa·s] | mass density ([1]; 303.15 K) [kg/m3] | viscosity ([1]; 308.15 K) [mPa·s] | mass density ([1]; 308.15 K) [kg/m3] | viscosity ([1]; 313.15 K) [mPa·s] | mass density ([1]; 313.15 K) [kg/m3] | viscosity ([2]; 293.15 K) [mPa·s] | mass density ([2]; 293.15 K) [kg/m3] | viscosity ([2]; 298.15 K) [mPa·s] | mass density ([2]; 298.15 K) [kg/m3] | viscosity ([2]; 303.15 K) [mPa·s] | mass density ([2]; 303.15 K) [kg/m3] | viscosity ([2]; 308.15 K) [mPa·s] | mass density ([2]; 308.15 K) [kg/m3] | viscosity ([2]; 313.15 K) [mPa·s] | mass density ([2]; 313.15 K) [kg/m3] | Compound |
| --- | --- | --- | --- | --- | --- | --- | --- | --- | --- | --- | --- | --- | --- | --- | --- | --- | --- | --- | --- | --- |
| – | – | – | – | – | – | – | – | – | – | 0.725 ± 0.011 | 717.88 ± 0.16 | 0.679 ± 0.011 | 714 ± 0.17 | 0.639 ± 0.011 | 710.1 ± 0.17 | 0.604 ± 0.011 | 706.19 ± 0.17 | 0.572 ± 0.011 | 702.26 ± 0.17 | CCCCCCCCC [nonane] + CCCCC1CCCCC1 |
| 2.329 ± 0.019 | 763.09 ± 0.15 | 2.096 ± 0.018 | 759.57 ± 0.15 | 1.898 ± 0.017 | 756.03 ± 0.15 | 1.729 ± 0.016 | 752.51 ± 0.16 | 1.584 ± 0.015 | 748.98 ± 0.16 | – | – | – | – | – | – | – | – | – | – | CCCCCCCCCCCCCC [tetradecane] |
| 0.93 ± 0.012 | 730.52 ± 0.16 | 0.864 ± 0.012 | 726.76 ± 0.16 | 0.806 ± 0.012 | 722.97 ± 0.16 | 0.755 ± 0.011 | 719.17 ± 0.16 | 0.709 ± 0.011 | 715.36 ± 0.17 | – | – | – | – | – | – | – | – | – | – | CCCCCCCCCC [decane] |
| 1.5 ± 0.015 | 749 ± 0.16 | 1.376 ± 0.014 | 745.38 ± 0.16 | 1.265 ± 0.013 | 741.75 ± 0.16 | 1.167 ± 0.013 | 738.12 ± 0.16 | 1.081 ± 0.013 | 734.48 ± 0.16 | – | – | – | – | – | – | – | – | – | – | CCCCCCCCCCCC [dodecane] |
| 0.421 ± 0.01 | 683.99 ± 0.17 | 0.398 ± 0.01 | 679.74 ± 0.18 | 0.378 ± 0.01 | 675.41 ± 0.18 | 0.352 ± 0.01 | 671.12 ± 0.18 | 0.337 ± 0.01 | 666.92 ± 0.18 | – | – | – | – | – | – | – | – | – | – | CCCCCCC [heptane] |

Second part, the compound before the results:

| Compound | viscosity ([1]; 293.15 K) [mPa·s] | mass density ([1]; 293.15 K) [kg/m3] | viscosity ([1]; 298.15 K) [mPa·s] | mass density ([1]; 298.15 K) [kg/m3] | viscosity ([1]; 303.15 K) [mPa·s] | mass density ([1]; 303.15 K) [kg/m3] | viscosity ([1]; 308.15 K) [mPa·s] | mass density ([1]; 308.15 K) [kg/m3] | viscosity ([1]; 313.15 K) [mPa·s] | mass density ([1]; 313.15 K) [kg/m3] | viscosity ([2]; 293.15 K) [mPa·s] | mass density ([2]; 293.15 K) [kg/m3] | viscosity ([2]; 298.15 K) [mPa·s] | mass density ([2]; 298.15 K) [kg/m3] | viscosity ([2]; 303.15 K) [mPa·s] | mass density ([2]; 303.15 K) [kg/m3] | viscosity ([2]; 308.15 K) [mPa·s] | mass density ([2]; 308.15 K) [kg/m3] | viscosity ([2]; 313.15 K) [mPa·s] | mass density ([2]; 313.15 K) [kg/m3] |
| --- | --- | --- | --- | --- | --- | --- | --- | --- | --- | --- | --- | --- | --- | --- | --- | --- | --- | --- | --- | --- |
| CCCCCCCC [octane] | 0.546 ± 0.011 | 702.86 ± 0.17 | 0.521 ± 0.011 | 698.85 ± 0.17 | 0.49 ± 0.011 | 694.8 ± 0.17 | 0.467 ± 0.011 | 690.73 ± 0.17 | 0.442 ± 0.011 | 686.63 ± 0.17 | – | – | – | – | – | – | – | – | – | – |
| CCCCCCCCC [nonane] | 0.725 ± 0.011 | 717.88 ± 0.16 | 0.679 ± 0.011 | 714 ± 0.17 | 0.639 ± 0.011 | 710.1 ± 0.17 | 0.604 ± 0.011 | 706.19 ± 0.17 | 0.572 ± 0.011 | 702.26 ± 0.17 | – | – | – | – | – | – | – | – | – | – |
| CCCCC1CCCCC1 [butylcyclohexane] | 1.296 ± 0.014 | 799.44 ± 0.15 | 1.196 ± 0.013 | 795.7 ± 0.15 | 1.107 ± 0.013 | 791.95 ± 0.15 | 1.027 ± 0.013 | 788.19 ± 0.15 | 0.958 ± 0.012 | 784.41 ± 0.15 | – | – | – | – | – | – | – | – | – | – |
| CCCCCCCC [octane] + CCCCC1CCCCC1 | – | – | – | – | – | – | – | – | – | – | 0.546 ± 0.011 | 702.86 ± 0.17 | 0.521 ± 0.011 | 698.85 ± 0.17 | 0.49 ± 0.011 | 694.8 ± 0.17 | 0.467 ± 0.011 | 690.73 ± 0.17 | 0.442 ± 0.011 | 686.63 ± 0.17 |
| CCCCCCC [heptane] + CCCCC1CCCCC1 | – | – | – | – | – | – | – | – | – | – | 0.421 ± 0.01 | 683.99 ± 0.17 | 0.398 ± 0.01 | 679.74 ± 0.18 | 0.378 ± 0.01 | 675.41 ± 0.18 | 0.352 ± 0.01 | 671.12 ± 0.18 | 0.337 ± 0.01 | 666.92 ± 0.18 |
| CCCCCCCCCCCC [dodecane] + CCCCC1CCCCC1 | – | – | – | – | – | – | – | – | – | – | 1.5 ± 0.015 | 749 ± 0.16 | 1.376 ± 0.014 | 745.38 ± 0.16 | 1.265 ± 0.013 | 741.75 ± 0.16 | 1.167 ± 0.013 | 738.12 ± 0.16 | 1.081 ± 0.013 | 734.48 ± 0.16 |
| CCCCCCCCCC [decane] + CCCCC1CCCCC1 | – | – | – | – | – | – | – | – | – | – | 0.93 ± 0.012 | 730.52 ± 0.16 | 0.864 ± 0.012 | 726.76 ± 0.16 | 0.806 ± 0.012 | 722.97 ± 0.16 | 0.755 ± 0.011 | 719.17 ± 0.16 | 0.709 ± 0.011 | 715.36 ± 0.17 |
| CCCCCCCCCCCCCC [tetradecane] + CCCCC1CCCCC1 | – | – | – | – | – | – | – | – | – | – | 2.329 ± 0.019 | 763.09 ± 0.15 | 2.096 ± 0.018 | 759.57 ± 0.15 | 1.898 ± 0.017 | 756.03 ± 0.15 | 1.729 ± 0.016 | 752.51 ± 0.16 | 1.584 ± 0.015 | 748.98 ± 0.16 |
